From ChEMBL document CHEMBL1125393, “5-(Aminomethyl)-3-aryldihydrofuran-2(3H)-ones, a new class of monoamine oxidase-B inactivators” (J Med Chem, 1992)

Legend:
[1] = molecular target: T1, Amine oxidase [flavin-containing] B (Bos taurus, UniProt P56560); experiment: Inactivation constant against beef liver mitochondrial monoamine oxidase-B (MAO-B); settings: cattle
T1 sequence (P56560 whole entry): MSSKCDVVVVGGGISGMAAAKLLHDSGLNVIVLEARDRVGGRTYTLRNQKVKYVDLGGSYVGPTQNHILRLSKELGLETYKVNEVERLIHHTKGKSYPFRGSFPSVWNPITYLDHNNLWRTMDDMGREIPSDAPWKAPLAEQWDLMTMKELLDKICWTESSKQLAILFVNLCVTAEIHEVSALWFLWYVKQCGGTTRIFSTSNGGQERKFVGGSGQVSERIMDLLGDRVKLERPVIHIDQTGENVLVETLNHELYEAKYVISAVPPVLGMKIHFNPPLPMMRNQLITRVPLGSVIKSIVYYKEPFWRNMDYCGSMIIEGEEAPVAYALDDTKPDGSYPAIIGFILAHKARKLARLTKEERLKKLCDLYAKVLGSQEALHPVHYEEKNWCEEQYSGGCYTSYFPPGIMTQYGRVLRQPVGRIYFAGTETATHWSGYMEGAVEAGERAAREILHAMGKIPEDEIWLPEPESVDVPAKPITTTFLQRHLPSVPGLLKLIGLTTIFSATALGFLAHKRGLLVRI

[2] = molecular target: T1, Amine oxidase [flavin-containing] B; experiment: Inhibitory constant against beef liver mitochondrial monoamine oxidase-B (MAO-B)

SMILES	kinact [1]	Ki [2]
NC[C@@H]1C[C@@H](c2ccccc2)C(=O)O1	0.0357 s⁻¹	5.1 mM
NC[C@@H]1C[C@H](c2ccccc2)C(=O)O1	0.0428 s⁻¹	4.2 mM
COc1ccc(N2CC(CN)OC2=O)cc1 (stereo not given)	0.0133 s⁻¹	12.5 mM
COc1ccc([C@@H]2C[C@@H](CN)OC2=O)cc1	0.383 s⁻¹	18.2 mM
COc1ccc([C@H]2C[C@@H](CN)OC2=O)cc1	0.074 s⁻¹	6.67 mM
